Reference: US20200071380A1, “COMBINATION THERAPIES COMPRISING SIRP ALPHA-BASED CHIMERIC PROTEINS” (Shattuck Labs, Inc., priority 2018, published 2020)

Legend:
[1] = tested on: low EGFR-expressing Chronic myeloid leukemia (CML) cell line (K562); experiment: Macrophage engulfment of K562 cells; assay type: cell-based, human; conditions: K562, negative control cell line
[2] = tested on: cynomolgus macaque erythrocytes; experiment: In vitro hemolysis assay, cynomolgus macaque erythrocytes; assay type: cell-based
Description: (§1) However, the in vitro systems used to test this question have significant limitations, including a complete lack of macrophages in the test system.

[3] = Repeat-dose safety and activity study in cynomolgus macaques; assay type: in vivo
Description: FIG. 21A-D is a graph showing cynomolgus macaques that were treated with vehicle, or 0.1, 1, 10, and 40 mg/kg of SIRPα-Fc-CD40L. Blood chemistry analysis assessed peripheral erythrocyte counts (FIG. 21A), hemoglobin levels (FIG. 21C), and hematocrit (FIG. 21B). In addition, the fold-change in lymphocyte count from pre-dose to 24 hours post-dose is shown (FIG. 21D).
The experiments of this example tested the safety and activity of the human SIRPα-Fc-CD40L chimeric protein following repeat doses in cynomolgus macaques. Briefly, naïve cynomolgus macaques were administered the human SIRPα-Fc-CD40L chimeric protein by intravenous infusion every week, for five consecutive weeks, at doses of 0.1, 1, 10 and 40 mg/kg. Standard hematology and clinical chemistry parameters were collected before and after each dose.
Receptor occupancy was evaluated on circulating CD40+ lymphocytes.

CT26 tumors = experiment: Syngeneic CT26 colon tumor model versus CD40/CD47 antibodies (Example 11); assay type: in vivo, mice
Description: FIG. 20C: a similar CT26 experiment was initiated as described in FIG. 20A above, however mice were pre-treated on days −1, 1, and 10 with IP injections of 100 μg of either or both CD4/CD8 depleting antibodies. Mice were inoculated with CT26 tumors on day 0 and treated at a later starting date than FIG. 20A with mSIRPα-Fc-CD40L ARC on days 7, 9, and 11. […] In FIG. 20D and FIG. 20E, BALB/C mice were inoculated with WEHI3 tumors (FIG. 20D) or A20 tumors (FIG. 20E) subcutaneously on the rear flank, and then treated via IP injection with anti-CD20 or mSIRPα-Fc-CD40L on days 7, 9, and 11 (WEHI3) or days 10, 12, and 14 (A20); when tumors were established and reached approximately 57-60 mm^3. A cohort of mice were pre-treated with an interferon alpha receptor 1 (IFNAR1) blocking antibody ([…] by IP injection) on days -1, 1, and 10 (WEHI3) or on days −1, 1, and 13 (A20). FIG. 20F to FIG. 20H are graphs showing blockade of CD4, CD8, and IFNAR1. Peripheral blood analysis by flow cytometry of CD4 (FIG. 20F), CD8 (FIG. 20G), and IFNAR1 (FIG. 20H) depletion following depleting antibody treatment corresponding to FIG. 20C to FIG. 20E. Samples were normalized to untreated animals.
Implanted CT26 tumors were allowed to grow to ˜30 mm^3 before treatment was initiated with a fixed regimen of two doses of either a CD40 agonist antibody (clone FGK4.5), a CD47 blocking antibody (clone MIAP301), a combination of the two antibodies, or the murine SIRPα-Fc-CD40L chimeric protein. […] Based on this observation, these experiments were repeated in the setting of antibody-mediated depletion of both CD4+ and CD8+ cells (FIG. 20C).
CD4 and CD8 depletion was verified in the peripheral blood at multiple time points during the experiment (see, FIG. 20F and FIG. 20G).

[4] = tested on: human donor red blood cells (RBCs); experiment: In vitro hemolysis assay, human erythrocytes; assay type: cell-based
Description: FIG. 22B is a graph showing RBCs and test agents that were incubated at 37° C. for 24 hours and then the media was assessed at OD490 for changes in absorbance due to hemoglobin being released from lysing RBCs. […] FIG. 22D are graphs showing that peripheral blood was isolated from mice receiving three IP doses (300 μg) of the murine SIRPα-Fc-CD40L surrogate (arrows). Cell populations were assessed by flow cytometry and included CD20+ B cells, CD110+, CD4+/CD11c+, and CD8+/CD11c+ dendritic cells.
as §1

[5] = tested on: A431, HCC827, K562, HCC1954 and MCF7 cells; experiment: Macrophage phagocytosis of EGFR/HER2 human tumor cell line panel; assay type: cell-based; conditions: variety of human tumor cell lines
RAW264.7-ISG cells = experiment: RAW264.7-ISG interferon reporter cells co-cultured with A20 lymphoma cells; assay type: cell-based, murine; conditions: co-culture with A20 lymphoma cells, 24 hours
Description: FIG. 8D: Macrophage:Toledo lymphoma co-cultures were harvested 2 hours into phagocytosis assays in the presence of rituximab ([…]), SIRPα-Fc-CD40L ([…]), or the combination of both agents. Macrophages were isolated by CD11b+FACS, RNA was prepared, cDNA synthesized, and gene expression (IFNa1, IFNb1, CD80, and CD86) assessed by qRT-PCR. Fold change was calculated using DDCT and values obtained from the housekeeping gene ACTB, and the corresponding values from untreated samples. […] After 2 hours, co-cultures were isolated from tissue culture vessels and were stained with a fluorescently conjugated CD11b antibody to discriminate macrophages. Cells were then assessed by flow cytometry for the co-localization of fluorescent signal from both cells types. […] After 24-hours type I interferon induced luminescence was assessed using a luminometer. The maximum luminescence (RLU) from each experiment was set to 1, and all other samples were normalized accordingly. […]
Additionally, a macrophage reporter system was used to detect activation. […] After 24 hours, culture supernatant was collected and assessed for luciferase activity, which would indicate activation of a type I interferon response in the RAW-ISG reporter cells. […]

SIRPα-Fc-CD40L: Generic name of the SIRPα ECD-Fc-CD40L ECD chimeric protein; human or murine version depending on the test system
phagocytic activity [1]: no phagocytic activity
hemolysis in vitro [2]: did not reveal evidence of hemolysis
number of CD40+ cells in the peripheral blood ([3]; 0.1, 1, 10 and 40 mg/kg): dose-dependent decrease in the number of CD40+ cells in the peripheral blood
hematology parameters ([3]; declines also noted in the vehicle control group): Mild declines in hematology parameters
total number of lymphocytes before and after each dose ([3]; episodic fluctuation): did not depart from the upper and lower range of normal
serum cytokines (CCL2, CXCL9, CXCL10, IL-6, IL-15, IL-17A, IL-23) ([3]; following each infusion): dose-dependent increases in multiple serum cytokines
therapeutic benefit, requirement for CD4+ T cells (CT26 tumors; antibody-mediated depletion of CD4+ cells): partially required
therapeutic benefit in the absence of CD8+ cells (CT26 tumors; antibody-mediated depletion of CD8+ cells): completely eliminated the therapeutic benefit
proportion of AH1-tetramer positive CD8+ T cells (CT26 tumors; tumor and spleen, 13 days following tumor inoculation): increase in the proportion of AH1-tetramer positive CD8+T cells in both the tumor and spleen
hemolysis in vitro [4]: did not reveal evidence of hemolysis
macrophage phagocytosis of tumor cells [5]: stimulated macrophage phagocytosis of tumor cells
type I interferon response, interferon gene-driven luciferase activity (RAW264.7-ISG cells): stimulates an increase in interferon gene-driven luciferase activity
